Results: US20240226155A1, “Methods and Products for Reducing HIV Reservoirs” (The Regents of the University of California, priority 2023, published 2024)
“Also recorded” adds a separate entry of the source.

Tests used:
barcoded HIV NL-HABC = test: Kick and kill: SUW133 and NK cells in NL-HABC-infected mice on ART, then ART interruption; format: in vivo, TKO-BLT mice
Method: To determine whether combining a robust LRA with NK cells would effectively diminish the viral reservoir, as NK cells might eliminate cells induced to express virus due to the LRA activity, the following was performed. BLT mice were infected with NL-HABC, followed by ART to halt productive infection (FIG. 21, FIG. 64). Once mice were suppressed on ART, a subset of mice received a single intraperitoneal injection of 2 μg of SUW133 per mouse to reverse latency, followed by an intravenous injection of 5×10^6 allogeneic human NK cells eight hours later. Reactivation and killing of activated infected cells was allowed to occur while the mice were maintained on ART. ART was then discontinued, and mice were concurrently administered one more intravenous injection of 5×10^6 NK cells. A subset of control mice received SUW133, but no NK cell injections. All remaining control mice received DMSO as a vehicle control instead of SUW133. A subset of the mice receiving DMSO also received NK cell injections. Plasma viral loads were monitored after ART interruption for 12.1 weeks (FIG. 22). In these experiments, TKO-BLT mice, which can be robustly infected with HIV and are less susceptible to GVHD compared to NSG-BLT, were used and allowed monitoring the mice after ART interruption for a longer interval.
RNA was extracted from the barcoded virus supernatant using QIAamp Viral RNA Mini Kit (Qiagen) and from cells using RNeasy MiniKit (Qiagen). cDNA was generated using SuperScript IV First-Strand Synthesis Kit (Invitrogen). The same amount of input RNA that was used for viral load measurement was also used for cDNA synthesis for barcode analysis. The barcode region was amplified by hemi-nested PCR using Phusion High-Fidelity DNA Polymerase (ThermoFisher Scientific). Each RNA molecule was tagged with a Primer ID using methods in the art. Primer ID removal and cDNA purification was performed using an Purelink Quick PCR Purification Kit (Invitrogen) and methods in the art. […] Deep sequencing was performed with Illumina HiSeq3000 PE150. Sequencing depth was 10-fold higher than viral genome copies. Raw sequencing reads were de-multiplexed using the six-nucleotide ID. Sequencing error within the barcode region was corrected by filtering out low quality reads (quality score<30) and un-matched base-pairs between forward and reverse reads. PrimerIDs were used to correct sequencing errors. The frequency of Primer ID reads followed a bi-modal distribution (FIG. 53). The Primer IDs were filtered using the frequency cutoff between the Poisson distribution of errors and normal distribution of real Primer IDs. For each Primer ID, the most frequently observed barcode was called. Similar barcodes were then grouped into clusters. […]

HIV = conditions: cited from earlier work

C=C1C[C@H]2C[C@]3(O)O[C@H](C[C@@H](O)CC(=O)O[C@@H](CO)C[C@@H]4C/C(=C\C(=O)OC)[C@H](OC(=O)CCCCCCC)[C@@](O)(O4)C(C)(C)/C=C/[C@@H](C1)O2)C[C@H](OC(C)=O)C3(C)C [SUW133]
delay to rebound after ART interruption (Kaplan-Meier, log-rank) (barcoded HIV NL-HABC; combination vs other groups (P=0.012 vs DMSO, 0.0037 vs SUW133, 0.09 vs NK), single agents vs DMSO (P=0.59, 0.47)): did not demonstrate a significant delay in rebound | mean unique barcodes per mouse (barcoded HIV NL-HABC; deep sequencing of rebounding viral RNA, DMSO alone 4.7): 4.1 | CD69 expression on peripheral CD4+ T cells in the blood (barcoded HIV NL-HABC; five days after administration of SUW133): significant increase; also recorded: significantly elevated | rebound viremia during the lengthened interval of ART interruption (barcoded HIV NL-HABC; monitored about 12 weeks): eventually rebound; also recorded: rebounded | replication-competent virus from splenocytes in ex vivo cultures (HIV; SUW133-treated mice, prior studies): generated replication-competent virus | delay of rebound viremia after ART interruption (HIV; SUW133 alone, prior studies): up to two to four weeks | time of maximal CD69 expression on CD4+ T cells in vivo (HIV; post-SUW133 injection, previous report): approximately one to two days | time CD69 can be detected on CD4+ T cells in vivo (HIV; post-injection, previous report): up to nine days | CD4+ T cell activation and latency reversal in vivo (HIV; single administration): activated CD4^+ T cells and reversed latency in vivo
